According to US11685747B2, “Compounds that inhibit MCL-1 protein” (AMGEN INC., priority 2014, dated 2023):
pIC50: −log10 of the molar value.

Tests used:
recombinant human Mcl-1 = molecular target: T1, recombinant human Mcl-1 (Homo sapiens, UniProt Q07820); assay: Cell free Mcl-1:Bim affinity assay (Mcl-1 HTRF, TR-FRET); format: binding; conditions: inhibition of Mcl-1/Bim interaction
T1 construct: C-terminally 6×His tagged Mcl-1 containing residues 171-327; made in house
Experimental: Cell Free Mcl-1:Bim Affinity Assay (Mcl-1 HTRF)
The inhibition of the Mcl-1/Bim interaction was measured using a time-resolved fluorescence resonance energy transfer (TR-FRET) assay. […] A biotinylated peptide derived from human Bim (residues 51-76) was purchased from CPC Scientific (San Jose, Calif.). The TR-FRET assay was conducted in a 384-well white OptiPlate™ (PerkinElmer, Waltham, Mass.) in a total volume of 40 μL. […] The reaction plates were further incubated overnight and then were read on an Envision® multimode reader (PerkinElmer). […] The IC50 values of test compounds were determined from duplicate data by analyzing competition curves using a four-parameter sigmoidal model in GraphPad Prism (GraphPad Software, San Diego, Calif.) or in Genedata Screener® (Genedata, Basel, Switzerland).

OPM-2 = assay: Cell viability assay (OPM-2 10 FBS, CellTiter-Glo); format: cell-based, human; conditions: OPM-2 cells
Experimental: Cell Viability Assay (OPM-2 10 FBS)
Cells were seeded into 384-well plates at 3000 cells/well density in complete growth medium containing 10% FBS, and incubated for 16 h with serially diluted test compounds in a 37° C. incubator with 5% CO2. Cell viability was tested using CellTiter-Glo® assay (Promega, Madison, Wis.) according to the manufacturer recommendations. Luminescence was determined using an EnVision® Multilabel plate reader 25 min after the addition of detection reagent. IC50 values were then calculated with Xlfit using a logistical 4-parameter fit model in GraphPad Prism (GraphPad Software, San Diego, Calif.) or in Genedata Screener® (Genedata, Basel, Switzerland).

[1] = molecular target: T2, Mcl-1/Bak protein-protein interactions (Homo sapiens, UniProt Q07820); assay: Cell-based split luciferase complementation assay; conditions: HEK 293 M cells, serum-free, 4 h
T2 construct: expressed in transfected cells; host or cells: HEK 293 M cells, transient transfection
T2 sequence (Q07820 whole entry): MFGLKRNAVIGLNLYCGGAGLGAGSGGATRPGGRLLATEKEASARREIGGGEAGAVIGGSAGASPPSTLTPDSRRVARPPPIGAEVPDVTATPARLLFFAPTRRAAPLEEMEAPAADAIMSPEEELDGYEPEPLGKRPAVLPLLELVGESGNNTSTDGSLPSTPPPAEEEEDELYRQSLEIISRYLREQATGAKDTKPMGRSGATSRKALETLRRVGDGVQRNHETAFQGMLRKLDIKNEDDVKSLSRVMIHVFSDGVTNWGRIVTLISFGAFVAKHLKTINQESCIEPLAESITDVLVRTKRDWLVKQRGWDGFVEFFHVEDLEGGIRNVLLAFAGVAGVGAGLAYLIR
Experimental: Cell-Based Assay (Split Luciferase)
A split luciferase complementation assay was developed to determine the inhibition of Mcl-1/Bak protein-protein interactions in cells. […] Transient transfection was performed using Lipofectamine® LTX/Plus™ reagent (Life Technologies, Grand Island, N.Y.). 24 h after transfection, cells were collected using non-enzyme based cell dissociation buffer StemPro® Accutase® (Life Technologies), and resuspended in serum-free Opti-MEM® (Life Technologies). Cells were then seeded into assay plates with serially diluted test compounds in 0.3% DMSO at density of a 5000 cells/well. Cells were then incubated for 4 h at 37° C. in a cell culture incubator supplement with 5% CO2. Test plates were equilibrated to room temperate for 30 min before addition of 30 μL Steady-Glo® Luciferase assay reagent (Promega, Madison, Wis.) into each test well. Luminescence was determined using an EnVision® Multilabel plate reader 25 min after the addition of detection reagent. IC50 values were then calculated with Xlfit using a logistical 4-parameter fit model in GraphPad Prism (GraphPad Software, San Diego, Calif.) or in Genedata Screener® (Genedata, Basel, Switzerland).

T1 sequence (Q07820 171-327): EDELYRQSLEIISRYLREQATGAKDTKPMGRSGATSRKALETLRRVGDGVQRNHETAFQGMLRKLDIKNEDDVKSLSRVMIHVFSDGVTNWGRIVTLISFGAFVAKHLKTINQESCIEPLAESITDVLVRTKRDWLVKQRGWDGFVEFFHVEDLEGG

Row | SMILES | pIC50 (recombinant human Mcl-1) | pIC50 (OPM-2; Homo sapiens, 16 h) | pIC50 [1] | pIC50 (OPM-2; 16 h) | pIC50 (OPM-2; Homo sapiens, OPM-2, 16 h)
1 | O=C1NS(=O)(=O)CCC/C=C/[C@H](O)[C@@H]2CC[C@H]2CN2C[C@@]3(CCCc4cc(Cl)ccc43)COc3ccc1cc32 [Example 8, (1S,3′R,6′R,7′S,8′E)-6-Chloro-7′-Hydroxy-3,4-Dihydro-2H,15′H-Spiro[Naphthalene-1,22′-[20]Oxa[13]Thia[1,14]Diazatetracyclo[14.7.2.0^3,6.0^19,24]Pentacos A[8,16,18,24]Tetraen]-15′-One 13′,13′-Dioxide] | 9.01 | 5.77 | 6.68 | – | –
2 | C[C@H]1C/C=C/[C@H](O)[C@@H]2CC[C@H]2CN2C[C@@]3(CCCc4cc(Cl)ccc43)COc3ccc(cc32)C(=O)NS(=O)(=O)[C@@H]1CC1CC1 (single isomer, unassigned) [Example 58] | 9.04 | – | 7.32 | 6.30 | –
3 | O=C1NS(=O)(=O)CCCCC[C@H](O)[C@@H]2CC[C@H]2CN2C[C@@]3(CCCc4cc(Cl)ccc43)COc3ccc1cc32 [Example 10, (1S,3′R,6′R,7′S)-6-Chloro-7′-Hydroxy-3,4-Dihydro-2H,15′Hspiro[Naphthalene-1,22′[20]Oxa[13]Thia[1,14]Diazatetracyclo[14.7.2.0^3,6.0^19,24]Penta Cosa[16,18,24]Trien]-15′-One 13′,13′-Dioxide] | 8.93 | – | 6.63 | – | 5.03
4 | C[C@H]1C/C=C/[C@H](O)[C@@H]2CC[C@H]2CN2C[C@@]3(CCCc4cc(Cl)ccc43)COc3ccc(cc32)C(=O)NS(=O)(=O)[C@@H]1CC1CC1 (single isomer, unassigned) [Example 59] | 9.31 | – | 7.21 | 6.61 | –
5 | CO[C@H]1/C=C/C[C@H](C)[C@@H](C2CC2)S(=O)(=O)NC(=O)c2ccc3c(c2)N(C[C@@H]2CC[C@H]21)C[C@@]1(CCCc2cc(Cl)ccc21)CO3 [Example 48, (1S,3′R,6′R,7′S,8′E,11′S,12′S)-6-Chloro-12′-Cyclopropyl-7′-Methoxy-11′-Methyl-3,4-Dihydro-2H,15′H-Spiro [Naphthalene-1,22′-[20]Oxa[13]Thia[1,14]Diazatetracyclo[14.7.2.0^3,6.0^19,24]Pentacosa[8,16,18,24]Tetraen]-15′-One 13′,13′-Dioxide] | 8.41 | – | 6.32 | – | 5.25
6 | C[C@H]1C/C=C/[C@H](O)[C@@H]2CC[C@H]2CN2C[C@@]3(CCCc4cc(Cl)ccc43)COc3ccc(cc32)C(=O)NS(=O)(=O)[C@@H]1C1CC1 (single isomer, unassigned) [Example 44] | 9.53 | – | 7.67 | 6.68 | –
7 | CO[C@H]1/C=C/C[C@@H](C)[C@@H](C(C)C)S(=O)(=O)NC(=O)c2ccc3c(c2)N(C[C@@H]2CC[C@H]21)C[C@@]1(CCCc2cc(Cl)ccc21)CO3 [Example 53, (1S,3′R,6′R,7′S,8′E,11′R,12′R)-6-Chloro-7′-Methoxy-11′-Methyl-12′-(1-Methylethyl)-3,4-Dihydro-2H,15′H-Spiro[Naphthalene-1,22′-[20]Oxa[13]Thia[1,14]Diazatetracyclo[14.7.2.0^3,6.0^19,24]Pentacosa[8,16,18,24]Tetraen]-15′-One 13′,13′-Dioxide] | 8.86 | – | 7.29 | – | 6.48
8 | CO[C@H]1/C=C/C[C@H](C)CS(=O)(=O)NC(=O)c2ccc3c(c2)N(C[C@@H]2CC[C@H]21)C[C@@]1(CCCc2cc(Cl)ccc21)CO3 (single isomer, unassigned) [Example 31] | 8.24 | – | 6.27 | 5.45 | –
9 | C[C@H]1C/C=C/[C@H](O)[C@@H]2CC[C@H]2CN2C[C@@]3(CCCc4cc(Cl)ccc43)COc3ccc(cc32)C(=O)NS(=O)(=O)[C@@H]1C1CC1 (single isomer, unassigned) [Example 45] | 8.26 | – | 6.34 | 4.70 | –
10 | CC[C@@H]1C/C=C/[C@H](O)[C@@H]2CC[C@H]2CN2C[C@@]3(CCCc4cc(Cl)ccc43)COc3ccc(cc32)C(=O)NS(=O)(=O)C1 (single isomer, unassigned) [Example 33] | 8.15 | – | 6.06 | – | 4.83
11 | C[C@H]1C/C=C/[C@H](O)[C@@H]2CC[C@H]2CN2C[C@@]3(CCCc4cc(Cl)ccc43)COc3ccc(cc32)C(=O)NS(=O)(=O)[C@@H]1C1CCC1 (single isomer, unassigned) [Example 57] | 8.67 | – | 6.43 | 5.62 | –
12 | C[C@H]1C/C=C/[C@H](O)[C@@H]2CC[C@H]2CN2C[C@@]3(CCCc4cc(Cl)ccc43)COc3ccc(cc32)C(=O)NS(=O)(=O)[C@@H]1C1CC1 (single isomer, unassigned) [Example 46] | 9.14 | – | 7.11 | 6.48 | –
13 | C[C@H]1C/C=C/[C@H](O)[C@@H]2CC[C@H]2CN2C[C@@]3(CCCc4cc(Cl)ccc43)COc3ccc(cc32)C(=O)NS(=O)(=O)[C@@H]1CC1CC1 (single isomer, unassigned) [Example 61] | 8.57 | – | 7.16 | 5.88 | –
14 | CO[C@H]1/C=C/CCCS(=O)(=O)NC(=O)c2ccc3c(c2)N(C[C@@H]2CC[C@H]21)C[C@@]1(CCCc2cc(Cl)ccc21)CO3 [Example 9, (1S,3′R,6′R,7′S,8′E)-6-Chloro-7′-Methoxy-3,4-Dihydro-2H,15′H-Spiro[Naphthalene-1,22′-[20]Oxa[13]Thia[1,14]Diazatetracyclo[14.7.2.0^3,6.0^19,24]Pentacos A[8,16,18,24]Tetraen]-15′-One 13′,13′-Dioxide] | 8.91 | – | 6.90 | – | 5.92
15 | CCC[C@@H]1[C@@H](C)C/C=C/[C@H](O)[C@@H]2CC[C@H]2CN2C[C@@]3(CCCc4cc(Cl)ccc43)COc3ccc(cc32)C(=O)NS1(=O)=O [Example 70, (1S,3′R,6′R,7′S,8′E,11′S,12′R)-6-Chloro-7′-Hydroxy-11′-Methyl-12′-Propyl-3,4-Dihydro-2H,15′H-Spiro[Naphthalene-1,22′-[20]Oxa[13]Thia[1,14] Diazatetracyclo [14.7.2.0^3,6.0^19,24]Pentacosa [8,16,18,24]Tetraen]-15′-One 13′,13′-Dioxide] | 9.19 | – | 7.46 | – | 6.62
16 | CC(C)[C@@H]1[C@H](C)C/C=C/[C@H](O)[C@@H]2CC[C@H]2CN2C[C@@]3(CCCc4cc(Cl)ccc43)COc3ccc(cc32)C(=O)NS1(=O)=O (single isomer, unassigned) [Example 50] | 8.99 | – | 6.63 | 5.88 | –
17 | CC(C)O[C@H]1/C=C/C[C@H](C)[C@@H](C)S(=O)(=O)NC(=O)c2ccc3c(c2)N(C[C@@H]2CC[C@H]21)C[C@@]1(CCCc2cc(Cl)ccc21)CO3 [Example 43, (1S,3′R,6′R,7′S,8′E,11′S,12′R)-6-Chloro-11′,12′-Dimethyl-7′-(1-Methylethoxy)-3,4-Dihydro-2H,15′H-Spiro[Naphthalene-1,22′-[20]Oxa[13]Thia[1,14]Diazatetracyclo[14.7.2.0^3,6.0^19,24]Pentacos A[8,16,18,24]Tetraen]-15′-One-13′,13′-Dioxide] | 8.76 | – | 6.89 | – | 6.05
18 | C[C@H]1C/C=C/[C@H](O)[C@@H]2CC[C@H]2CN2C[C@@]3(CCCc4cc(Cl)ccc43)COc3ccc(cc32)C(=O)NS(=O)(=O)C1 (single isomer, unassigned) [Example 29] | 8.03 | – | 6.34 | 5.25 | –
